In patent US9399626B2, “2-thiopyrimidinones” (Pfizer Inc., priority 2011, dated 2016):
Where a name gives a salt, the structure may show the parent alone.

Target: T1, MPO (purified from human polynuclear leukocytes) (Homo sapiens, UniProt P05164)
T1 construct: purified from human polynuclear leukocytes; purchased Calbiochem/EMD Biosciences; host or cells: human polynuclear leukocytes (natural source)
Experiment: MPO Amplex Red Activity Assay
Type: biochemical
Details: Table 1, 2 μM H2O2, pH 7.4
Summary of the method: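 Human leukocyte MPO […] oxidises 30 μM Amplex Red with 2 μM H2O2 in 50 mM NaPi pH 7.4, 150 mM NaCl, 1 mM DTPA, 2% DMSO. Resorufin fluorescence (ex 530/em 580 nm) read every 20 s, minus catalase background. kobs from the first 600 s, corrected for auto-inactivation, fit versus [I] for kinact/KI.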

T1 sequence (P05164 279-745 limits assumed): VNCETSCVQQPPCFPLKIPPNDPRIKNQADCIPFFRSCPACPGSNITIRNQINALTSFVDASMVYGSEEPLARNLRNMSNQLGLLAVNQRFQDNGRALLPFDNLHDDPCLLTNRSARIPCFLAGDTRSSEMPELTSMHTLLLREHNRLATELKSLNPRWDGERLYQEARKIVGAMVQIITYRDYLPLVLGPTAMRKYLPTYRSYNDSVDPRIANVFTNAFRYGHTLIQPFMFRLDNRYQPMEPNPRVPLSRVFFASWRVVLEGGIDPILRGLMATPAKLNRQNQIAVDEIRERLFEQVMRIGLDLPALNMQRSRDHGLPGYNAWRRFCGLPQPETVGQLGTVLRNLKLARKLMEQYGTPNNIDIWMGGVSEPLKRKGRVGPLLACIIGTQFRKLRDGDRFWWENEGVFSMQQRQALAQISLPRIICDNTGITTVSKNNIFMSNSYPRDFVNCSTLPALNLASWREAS
T1 sequence (P05164 165-273 limits assumed): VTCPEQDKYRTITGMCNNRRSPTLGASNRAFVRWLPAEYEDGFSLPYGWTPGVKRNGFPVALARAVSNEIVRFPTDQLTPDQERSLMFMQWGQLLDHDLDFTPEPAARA

Row | MPO kinact/Ki | SMILES
1 | 142 1/s per M | COc1ccc(-c2cc(=O)[nH]c(=S)n2CCNCC(N)=O)c(OC)c1 [Example 242, N~2~-{2-[6-(2,4-dimethoxyphenyl)-4-oxo-2-thioxo-3,4-dihydropyrimidin-1(2H)-yl]ethyl}glycinamide]
2 | 952 1/s per M | COc1ccc(-c2cc(=O)[nH]c(=S)n2CCNCC(=O)O)c(OC)c1 [Example 243, N-{2-[6-(2,4-dimethoxyphenyl)-4-oxo-2-thioxo-3,4-dihydropyrimidin-1(2H)-yl]ethyl}glycine hydrochloride]
3 | 8970 1/s per M | COc1ccc(-c2cc(=O)[nH]c(=S)n2CCOC(=O)CN)c(OC)c1 [Example 244, 2-[6-(2,4-dimethoxyphenyl)-4-oxo-2-thioxo-3,4-dihydropyrimidin-1(2H)-yl]ethyl glycinate tosylate]
4 | 1520 1/s per M | COc1ccc(-c2cc(=O)[nH]c(=S)n2CCCNCCO)c(OC)c1 [Example 245, 6-(2,4-dimethoxyphenyl)-1-{3-[(2-hydroxyethyl)amino]propyl}-2-thioxo-2,3-dihydropyrimidin-4(1H)-one]
5 | 246 1/s per M | COc1ccc(-c2cc(=O)[nH]c(=S)n2CCOCC(=O)O)c(OC)c1 [Example 246, {2-[6-(2,4-dimethoxyphenyl)-4-oxo-2-thioxo-3,4-dihydropyrimidin-1(2H)-yl]ethoxy}acetic acid]
6 | 3060 1/s per M | COc1ccc(-c2cc(=O)[nH]c(=S)n2Cc2cnc(C)cn2)c(OC)c1 [Example 247, 6-(2,4-dimethoxyphenyl)-1-[(5-methylpyrazin-2-yl)methyl]-2-thioxo-2,3-dihydropyrimidin-4(1H)-one]
7 | 3590 1/s per M | COc1ccc(-c2cc(=O)[nH]c(=S)n2CCS(N)(=O)=O)c(OC)c1 [Example 248, 2-[6-(2,4-dimethoxyphenyl)-4-oxo-2-thioxo-3,4-dihydropyrimidin-1(2H)-yl]ethanesulfonamide]
8 | 1050 1/s per M | COc1ccc(-c2cc(=O)[nH]c(=S)n2CCNc2ncc[nH]2)c(OC)c1 [Example 249, 6-(2,4-dimethoxyphenyl)-1-[2-(1H-imidazol-2-ylamino)ethyl]-2-thioxo-2,3-dihydropyrimidin-4(1H)-one]
9 | 7510 1/s per M | COc1ccc(-c2cc(=O)[nH]c(=S)n2CCNC2=NCCN2)c(OC)c1 [Example 250, 1-[2-(4,5-dihydro-1H-imidazol-2-ylamino)ethyl]-6-(2,4-dimethoxyphenyl)-2-thioxo-2,3-dihydropyrimidin-4(1H)-one]
10 | 68 1/s per M | COc1ccc(-c2cc(=O)[nH]c(=S)n2CCN2CCOCC2)c(OC)c1 [Example 251, 6-(2,4-dimethoxyphenyl)-1-(2-morpholin-4-ylethyl)-2-thioxo-2,3-dihydropyrimidin-4(1H)-one]
11 | 2480 1/s per M | COc1ccc(-c2cc(=O)[nH]c(=S)n2CC2(O)CCNCC2)c(OC)c1 [Example 252, 6-(2,4-dimethoxyphenyl)-1-[(4-hydroxypiperidin-4-yl)methyl]-2-thioxo-2,3-dihydropyrimidin-4(1H)-one hydrochloride]
12 | 12700 1/s per M | COc1ccc(-c2cc(=O)[nH]c(=S)n2CCCCNC(=N)N)c(OC)c1 [Example 253, 1-{4-[6-(2,4-dimethoxyphenyl)-4-oxo-2-thioxo-3,4-dihydropyrimidin-1(2H)-yl]butyl}guanidine]
13 | 5630 1/s per M | COc1ccc(-c2cc(=O)[nH]c(=S)n2CC(=O)NCC(N)=O)c(OC)c1 [Example 254, N~2~-{[6-(2,4-dimethoxyphenyl)-4-oxo-2-thioxo-3,4-dihydropyrimidin-1(2H)-yl]acetyl}glycinamide]
14 | 3550 1/s per M | COc1ccc(-c2cc(=O)[nH]c(=S)n2CCNC(=O)[C@@H](C)N)c(OC)c1 [Example 255, N-{2-[6-(2,4-dimethoxyphenyl)-4-oxo-2-thioxo-3,4-dihydropyrimidin-1(2H)-yl]ethyl}-D-alaninamide trifluoroacetate]
15 | 6520 1/s per M | COc1ccc(-c2cc(=O)[nH]c(=S)n2CCNC(=O)[C@H](C)N)c(OC)c1 [Example 256, N-{2-[6-(2,4-dimethoxyphenyl)-4-oxo-2-thioxo-3,4-dihydropyrimidin-1(2H)-yl]ethyl}-L-alaninamide trifluoroacetate]
16 | 3700 1/s per M | COc1ccc(-c2cc(=O)[nH]c(=S)n2CCNS(C)(=O)=O)c(OC)c1 [Example 257, N-{2-[6-(2,4-dimethoxyphenyl)-4-oxo-2-thioxo-3,4-dihydropyrimidin-1(2H)-yl]ethyl}methanesulfonamide]
17 | 1460 1/s per M | COc1ccc(-c2cc(=O)[nH]c(=S)n2CC2CCCN2C(=N)N)c(OC)c1 (stereo not shown) [Example 258, 2-{[6-(2,4-dimethoxyphenyl)-4-oxo-2-thioxo-3,4-dihydropyrimidin-1(2H)-yl]methyl}pyrrolidine-1-carboximidamide trifluoroacetate]
18 | 4000 1/s per M | COc1ccc(-c2cc(=O)[nH]c(=S)n2CC2CCN(C(=N)N)C2)c(OC)c1 (stereo not shown) [Example 259, 3-{[6-(2,4-dimethoxyphenyl)-4-oxo-2-thioxo-3,4-dihydropyrimidin-1(2H)-yl]methyl}pyrrolidine-1-carboximidamide trifluoroacetate]
19 | 19700 1/s per M | COc1ccc(-c2cc(=O)[nH]c(=S)n2CCCC[C@H](N)C(N)=O)c(OC)c1 [Example 260, 6-[6-(2,4-dimethoxyphenyl)-4-oxo-2-thioxo-3,4-dihydropyrimidin-1(2H)-yl]norleucinamide hydrochloride]
20 | 2280 1/s per M | COc1ccc(-c2cc(=O)[nH]c(=S)n2Cc2ccn(C(N)=S)n2)c(OC)c1 [Example 261, 3-{[6-(2,4-dimethoxyphenyl)-4-oxo-2-thioxo-3,4-dihydropyrimidin-1(2H)-yl]methyl}-1H-pyrazole-1-carbothioamide]
21 | 1730 1/s per M | COc1ccc(-c2cc(=O)[nH]c(=S)n2CC2CCCN2C(=O)CN)c(OC)c1 (stereo not shown) [Example 262, 6-(2,4-dimethoxyphenyl)-1-[(1-glycylpyrrolidin-2-yl)methyl]-2-thioxo-2,3-dihydropyrimidin-4(1H)-one hydrochloride]
22 | 4340 1/s per M | COc1ccc(-c2cc(=O)[nH]c(=S)n2CCNC(=O)[C@@H](N)C(C)C)c(OC)c1 [Example 263, N-{2-[6-(2,4-dimethoxyphenyl)-4-oxo-2-thioxo-3,4-dihydropyrimidin-1(2H)-yl]ethyl}-L-valinamide trifluoroacetate]
23 | 3620 1/s per M | COc1cccc(-c2cc(=O)[nH]c(=S)n2CCN)c1 [Example 264, 1-(2-aminoethyl)-6-(3-methoxyphenyl)-2-thioxo-2,3-dihydropyrimidin-4(1H)-one hydrochloride]
24 | 3730 1/s per M | COc1cccc(-c2cc(=O)[nH]c(=S)n2CCCN)c1 [Example 265, 1-(3-aminopropyl)-6-(3-methoxyphenyl)-2-thioxo-2,3-dihydropyrimidin-4(1H)-one hydrochloride]
25 | 604 1/s per M | C=CCn1c(-c2ccc(OC)cc2OC)cc(=O)[nH]c1=S [Example 266, 1-allyl-6-(2,4-dimethoxyphenyl)-2-thioxo-2,3-dihydropyrimidin-4(1H)-one]
